Laboratory results published in US5955491A, “Method for treating osteoporosis” (Takeda Chemical Industries, Ltd., priority 1993, dated 1999).
Peptide text beside a SMILES is read from it. * marks the point of attachment. MeOSuc = COC(=O)CCC(=O)*; Cbz = O=C(OCc1ccccc1)*; Boc = CC(C)(C)OC(=O)*; Bz = O=C(c1ccccc1)*

Legend:
[1] = system: fetal rat forearm bones (radius and ulna), bone resorption; assay: Bone resorption suppressing action (^45 Ca release from cultured fetal rat forearm bones, method of Raisz); format: cell-based, Sprague-Dawley rat; conditions: 48 h, cultured two days, control = no test compound, mean of five bone fragments, read-out: Bone Resorption Inhibitory Activity [^45 Ca Release Rate (Percent to Control)]; for activity at 10 µg/mL: Concentration of Compound 10 μg/ml; for activity at 10 µM: Concentration of Compound 10 μM
Description: Specifically, one Sprague-Dawley rat, at 18 days of gestation, was given 50 μCi of ^45 Ca (calcium isotope, in CaCl2 solution) by subcutaneous injection. On the following day, the animal was laparotomized and fetal rats aseptically removed. Both forearm bones (radius and ulna) were cut out from the body of each fetus under an anatomical microscope, and connective tissue and cartilages were removed to the maximum possible extent, to prepare bone culture samples. Each bone fragment was pre-cultured at 37° C. for 24 hours in 0.6 ml of BGJb medium (Fitton-Jackson modification, GIBCO Laboratories, United States) prepared by adding bovine serum albumin (final concentration 2 mg/ml), after which it was transferred to the same medium as above but containing each compound (final concentration 10 μg/ml or 10 μM) and cultured for two more days. ^45 Ca radioactivity in the medium and ^45 Ca radioactivity in the bone were then measured, and the percent ratio of ^45 Ca released from the bone to the medium was calculated using the following equation: [formula]
For control, bone fractions from fetuses of the same litter were cultured for two days in the absence of the test compound. The mean q standard deviation for the values from five bone fragments in each group were calculated, and their percent ratios to the control were calculated.

human cathepsin L = target: T1, human cathepsin L (Homo sapiens, UniProt P07711); assay: Determination of human cathepsin L inhibitory activity (recombinant enzyme, Z-Phe-Arg-NMec substrate); format: biochemical; conditions: pH 5.5, 30° C., 10 minutes
T1 construct: made in house; host or cells: mouse myeloma Sp2/0 cells stably transformed with pTBN-HCLneo (Sp-HCL26); purified from serum-free culture supernatant on CM-Sephadex C-50 and Mono S
T1 sequence (P07711 114-333): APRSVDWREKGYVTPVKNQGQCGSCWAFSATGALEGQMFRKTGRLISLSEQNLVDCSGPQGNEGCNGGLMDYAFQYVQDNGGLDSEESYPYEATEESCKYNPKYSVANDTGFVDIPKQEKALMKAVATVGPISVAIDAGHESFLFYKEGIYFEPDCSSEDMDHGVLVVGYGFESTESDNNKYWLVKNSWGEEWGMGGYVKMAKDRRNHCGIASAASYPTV
Description: This fraction was applied to a Mono S column (HR5/5) of an FPLC system (produced by Pharmacia), followed by column washing and human cathepsin L elution in the same manner as above.
Experimental Example 8: Determination of human cathepsin L inhibitory activity
The recombinant human cathepsin L purified in Experimental Example 7 was diluted with a diluent [0.1% Brij 35 (produced by Sigma Chemical Company)] to a concentration of 1 μg/ml. To 1 μl of this enzyme dilution, 46 μl of the diluent, 2 μl of 0.1M DTT and 25 μl of an activator/buffer (340 mM sodium acetate, 60 mM acetic acid, 4 mM disodium EDTA, pH 5.5) were added. To this mixture were added a 1 μl sample, diluted to 10^-2 M with dimethyl sulfoxide (DMSO), and 25 μl of 20 μM Z-Phe-Arg-NMec (enzyme substrate solution), followed by incubation at 30° C. for 10 minutes, after which 100 μl of a reaction stopper (100 mM sodium monochloroacetate, 30 mM sodium acetate, 70 mM acetic acid, pH 4.3) was added. This reaction was carried out on a 96-well fluoroplate (produced by Labo Systems).
After the reaction was stopped, the fluorescence intensity of free aminomethylcoumarin was determined at a wavelength of 450 nm (excitation wavelength=365 nm), using a fluorometer FCA (produced by Baxter). For a control, 1 μl of sample-free DMSO was added instead; the fluorometric value obtained from this control reaction was taken as 100% activity.

Structure (SMILES)	activity at 10 µg/mL [1] [%]	activity at 10 µM [1] [%]	IC50 (human cathepsin L) [nM]
CC[C@H](C)[C@H](NS(=O)(=O)c1cccc2ccccc12)C(=O)N[C@H](CO)Cc1c[nH]c2ccccc12 [Example 3, N-(1-naphthylsulfonyl)-(L)-isoleucyl-(L)-tryptophanol]	49	–	–
O=C(N[C@H](CO)Cc1c[nH]c2ccccc12)C(Cc1ccccc1)Cc1ccccc1 [Example 26, N-dibenzylacetyl-(L)-tryptophanol]	–	79	–
CC(C)[C@H](NC(=O)c1ccccc1)C(=O)N[C@H](CO)Cc1c[nH]c2ccccc12 [Example 38]	–	76	–
CC[C@H](C)[C@H](NC(=O)OCc1ccccc1)C(=O)N[C@H](CO)Cc1cn(C(C)(C)C)c2ccccc12 [Example 59]	–	67	–
Cc1ccc(CC(Cc2ccccc2)C(=O)N[C@H](CO)Cc2c[nH]c3ccccc23)cc1 (stereo partly shown) [Example 84]	–	74	–
CC[C@H](C)[C@H](NS(=O)(=O)c1cccc2ccccc12)C(=O)N[C@H](C=O)Cc1c[nH]c2ccccc12 [Example 103, N-(1-naphthylsulfonyl)-(L)-isoleucyl-(L)-tryptophanal]	49	–	–
CC[C@H](C)[C@H](NC(=O)OCc1ccccc1)C(=O)N[C@H](C=O)Cc1c[nH]c2ccccc12 [Example 107]	–	–	11
CC[C@H](C)[C@H](NC(=O)OCc1ccccc1)C(=O)N[C@H](C(=O)N[C@H](C=O)Cc1c[nH]c2ccccc12)[C@@H](C)CC [Example 108, N-(benzyloxycarhonyl)-(L)-isoleucyl-(L)-isoleucyl-(L)-tryptophanal] (Cbz-Ile-Ile-Trp-aldehyde)	42	–	5.4
CC[C@H](C)[C@H](NC(=O)OC(C)(C)C)C(=O)N[C@H](C(=O)N[C@H](C=O)Cc1c[nH]c2ccccc12)[C@@H](C)CC [Example 109] (Boc-Ile-Ile-Trp-aldehyde)	38	–	10
CC[C@H](C)[C@H](NC(=O)[C@@H](NS(=O)(=O)c1cccc2ccccc12)[C@@H](C)CC)C(=O)N[C@H](C=O)Cc1c[nH]c2ccccc12 [Example 110, N-(1-naphthylsulfonyl)-(L)-isoleucyl-(L)-isoleucyl-(L)-tryptophanal]	46	–	16
CC[C@H](C)[C@H](NC(=O)CCC(=O)OC)C(=O)N[C@H](C(=O)N[C@H](C=O)Cc1c[nH]c2ccccc12)[C@@H](C)CC [Example 111] (MeOSuc-Ile-Ile-Trp-aldehyde)	32	–	14
CC[C@H](C)[C@H](NC(=O)OCCC12CC3CC(CC(C3)C1)C2)C(=O)N[C@H](C(=O)N[C@H](C=O)Cc1c[nH]c2ccccc12)[C@@H](C)CC [Example 112]	43	–	380
CC[C@H](C)[C@H](NC(=O)NCCC1CCCCC1)C(=O)N[C@H](C=O)Cc1c[nH]c2ccccc12 [Example 115, N-[(2-cyclohexylethyl)carbamoyl]-(L)-isoleucyl-(L)-tryptophanal]	–	–	48
CC[C@H](C)[C@H](NC(=O)[C@@H](NS(=O)(=O)c1cccc2ccccc12)[C@@H](C)CC)C(=O)NC(C=O)Cc1cccc2ccccc12 (stereo partly drawn) [Example 118, N-(1naphthylsulfonyl)-(L)-isoleucyl-(L)-isoleucyl-(DL)-(1-naphthyl)alaninal]	–	–	220
O=C[C@H](Cc1c[nH]c2ccccc12)NC(=O)C(Cc1ccccc1)Cc1ccccc1 [Example 122, N-dibenzylacetyl-(L)-tryptophanal]	–	73	32
C[C@H](NS(=O)(=O)c1cccc2ccccc12)C(=O)N[C@H](C=O)Cc1c[nH]c2ccccc12 [Example 124]	–	79	–
O=C[C@H](Cc1c[nH]c2ccccc12)NC(=O)[C@H](Cc1ccccc1)NC(=O)c1ccccc1 [Example 128] (Bz-Phe-Trp-aldehyde)	–	73	19
CCCC(Sc1ccccc1)C(=O)N[C@H](C=O)Cc1c[nH]c2ccccc12 (stereo partly shown) [Example 129]	–	–	85

Structure (SMILES)	activity at 10 µg/mL [1] [%]	activity at 10 µM [1] [%]	IC50 (human cathepsin L) [nM]
CC(C)[C@H](NC(=O)OCc1ccccc1)C(=O)N[C@H](C=O)Cc1c[nH]c2ccccc12 [Example 132] (Cbz-Val-Trp-aldehyde)	–	74	0.99
CC(C)[C@H](NC(=O)c1ccccc1)C(=O)N[C@H](C=O)Cc1c[nH]c2ccccc12 [Example 134] (Bz-Val-Trp-aldehyde)	–	66	–
CCCC(CCC)C(=O)N[C@H](C(=O)N[C@H](C=O)Cc1c[nH]c2ccccc12)C(C)C [Example 135, N-(2-propylpentanoyl)-(L)-valyl-(L)-tryptophanal]	–	45	1
CC(C)C[C@H](NC(=O)c1ccccc1)C(=O)N[C@H](C=O)Cc1c[nH]c2ccccc12 [Example 143]	–	–	1.7
CCCC(CCC)C(=O)N[C@@H](CC(C)C)C(=O)N[C@H](C=O)Cc1c[nH]c2ccccc12 [Example 144]	–	60	2.4
CC[C@H](C)[C@H](NC(=O)OC(C)(C)C)C(=O)N[C@H](C=O)Cc1cn(C)c2ccccc12 [Example 150]	–	–	6.1
CC[C@H](C)[C@H](NS(=O)(=O)c1cccc2ccccc12)C(=O)N[C@@H](C)C=O [Example 153, N-(1-naphthylsulfonyl)-(L)-isoleucylalanal]	–	74	–
CC[C@H](C)[C@H](NS(=O)(=O)c1cccc2ccccc12)C(=O)N[C@H](C=O)Cc1ccccc1 [Example 154, N-(1-naphthylsulfonyl)-(L)-isoleucyl-(L)-phenylalaninal]	–	–	0.95
CC[C@H](C)[C@H](NC(=O)OCc1ccccc1)C(=O)N[C@H](C=O)Cc1ccc(OC(C)C)cc1 [Example 157]	–	72	–
CC[C@H](C)[C@H](NS(=O)(=O)c1cccc2ccccc12)C(=O)N[C@H](C=O)Cc1ccc(O)cc1 [Example 158]	–	65	–
CC[C@@H](C=O)NC(=O)C(Cc1ccccc1)Cc1ccccc1 [Example 167]	–	–	43
CC(C)[C@@H](C=O)NC(=O)C(Cc1ccccc1)Cc1ccccc1 [Example 168]	–	–	26
CC(C)C[C@H](NS(=O)(=O)c1cccc2ccccc12)C(=O)N[C@@H](Cc1c[nH]c2ccccc12)C(=O)NCC=O [Example 175]	–	–	19
CCOP(=O)(Cc1ccc(NC(=O)C(Cc2ccccc2)C(=O)N[C@H](C=O)Cc2c[nH]c3ccccc23)cc1)OCC (stereo partly shown) [Example 188]	–	–	37
O=C[C@H](Cc1c[nH]c2ccccc12)NC(=O)C(Cc1ccccc1)C(=O)N(Cc1ccccc1)Cc1ccccc1 (stereo partly shown) [Example 190]	–	–	55
O=C[C@H](Cc1c[nH]c2ccccc12)NC(=O)C(Cc1ccccc1)C(=O)NCc1ccccc1 (stereo partly shown) [Example 191]	–	–	4.7
O=C[C@H](Cc1c[nH]c2ccccc12)NC(=O)C(c1ccccc1)c1ccccc1 [Example 192]	–	–	4.2
CC[C@H](C)[C@H](NC(=O)c1cc(=O)c2ccccc2o1)C(=O)N[C@H](C=O)Cc1c[nH]c2ccccc12 [Example 193]	–	–	3.9
